Assay results reported in patent US9968619B2, “Method of treating triple-negative breast cancer using thienotriazolodiazepine compounds” (ONCOETHIX GMBH, priority 2014, dated 2018).

Tests used:
[1] = Pharmacokinetics and oral bioavailability in dogs; type: in vivo; conditions: male, beagle, plasma; dog; 1 mg/kg IV; solution in water:ethanol:PEG400 (60:20:20)
Description: Blood samples were collected from the jugular vein of each animal at 0 (pre-dose), 5, 15, and 30 minutes and 1, 2, 4, 8, 12, and 24 hours following intravenous administration and at 0 (pre-dose), 15 and 30 minutes and 1, 2, 4, 8, 12, and 24 hours following oral gavage administration. The amount of compound (1-1) present in each sample was detected using a qualified LC-MS/MS method with a lower limit of quantification of 0.5 ng/mL. The area under the plasma concentration-time curve (AUC) was determined by use of the linear trapezoidal rule up to the last measurable concentration without extrapolation of the terminal elimination phase to infinity. The elimination half-life (t1/2) was calculated by least-squares regression analysis of the terminal linear part of the log concentration-ime curve. The maximum plasma concentration (Cmax) and the time to Cmax (tmax) were derived directly from the plasma concentration data. The oral bioavailability (F) was calculated by dividing the dose normalized AUC after oral administration by the dose normalized AUC after intravenous administration and reported as percentages (%).

HCC1937 = test: Cell counting proliferation, HCC1937; type: cell-based; conditions: Homo sapiens
MDA-MB-231 [2] = test: Cell counting proliferation, MDA-MB-231; type: cell-based; conditions: Homo sapiens
MDA-MB-468 [3] = test: Cell counting proliferation, MDA-MB-468; type: cell-based; conditions: Homo sapiens
MDA-MB-468 [4] = test: Cell cycle after drug washout, MDA-MB-468; type: cell-based, human; conditions: 650 nM for 72 h, then drug washout
Description: Cells were staining with propidium iodide then analyzed using a FACScan flow cytometer. […] After 72 h of treatment, control and treated cells were washed with PBS and re-incubated with compound (1-1) free medium (drug washout). As show in FIG. 14A-14C, significant differences in the percentage of compound (1-1)-treated cells in the G1, S and G2/M phases with respect to untreated controls were determined by a one-way ANOVA test (p<0.001) followed by an SNK a posteriori test. After washout, significant differences in the percentage of cells in a given cell cycle phase between control and pre-treated cells were determined with the Student t-test for independent samples with equal or different variance, as appropriate. * , × and # means significant difference between treated cells respect and controls in G1 phase (*p<0.05, **p<0.01), G2/M phase (×p<0.05, ××p<0.01) and S phase p<0.05, ## p<0.01), respectively. Each bar and vertical line represents the mean±SEM, respectively (n≥3).

MDA-MB-231 [5] = test: Western blotting and RT-PCR expression, MDA-MB-231; type: cell-based, human; conditions: 75 nM; 24, 48 and 72 h
Description: Logarithmic transformation of the variable was applied before the ANOVA test if required. As shown in FIG. 16A-C, Western blots are representative of three independent experiments where each bar and vertical line represents the mean±SEM, respectively (n=3). As shown in FIG. 15D-15G, C-MYC protein and mRNA levels were unchanged by Compound (1-1) treatment in all the three cell lines.
CDKN1A (p21) mRNA levels were increased in all three cell models (p<0.001). […] Significant differences in the mRNA levels were determined by one-way ANOVA test (p<0.01) followed by SNK a posteriori test (*p<0.05, **p<0.01, […]). Logarithmic transformation of the variable was applied before the ANOVA test if required. Each bar and vertical line represents the mean±SEM, respectively (n=3). Western blots are representative of 3 independent experiments.

[6] = tested on: MDA-MB-231 nude mice-derived xenografts; test: MDA-MB-231 xenografts in nude mice; type: in vivo
Description: In vivo assays were performed in 8-week-old female MDA-MB-231 nude mice-derived xenografts. 10×10^6 cells were injected, when tumor volume reached 100 mm^3, mice were randomized to 4 groups (n=9): 1) vehicle; 2) 50 mg/kg Compound (1-1) (BID, po); 3) 2 mg/kg of everolimus (3 time a week, ip); 4) combination Compound (1-1) and everolimus; 4 weeks treatment.
Symbols with • indicate significant differences between treatment vs. vehicle-treated mice (p<0.05). * indicates a significant difference in the tumor mass between the combination treated animals and the two single agent groups (*p<0.05, **p<0.01 and ***p<0.001). Results represent the mean±SEM (during the treatment period, n=9). Variation of animal body weight during treatment is illustrated in FIG. 18B. […] The T/C ratio was 39% after 10 days of combination treatment, with an optimal value of 21% on day 23. Compound (1-1) can be used for the treatment of TNBC, either alone or in combination with mTOR inhibitors.

MDA-MB-231 [7] = test: MTT proliferation assay, MDA-MB-231; conditions: Homo sapiens
MDA-MB-468 [8] = test: MTT proliferation assay, MDA-MB-468; conditions: for Emax / GI50: Homo sapiens
[9] = HCC1937, 48 h, 48 h exposure, hypoxia (0.1% O2)
[10] = HCC1937, 72 h, 72 h exposure, hypoxia (0.1% O2)
[11] = HCC1937, 72 h, 72 h exposure, normoxia
[12] = MDA-MB-231, 48 h, 48 h exposure, hypoxia (0.1% O2)
[13] = MDA-MB-231, 48 h, 48 h exposure, normoxia
[14] = MDA-MB-231, 72 h, 72 h exposure, hypoxia (0.1% O2)
[15] = MDA-MB-231, 72 h, 72 h exposure, normoxia
[16] = MDA-MB-468, 48 h, 48 h exposure, hypoxia (0.1% O2)
[17] = MDA-MB-468, 48 h, 48 h exposure, hypoxia (0.1% O2), * = apparent value
[18] = MDA-MB-468, 48 h, 48 h exposure, normoxia
[19] = MDA-MB-468, 72 h, 72 h exposure, hypoxia (0.1% O2)
[20] = MDA-MB-468, 72 h, 72 h exposure, normoxia
[21] = Compound (1-1) 50 mg/kg BID po, everolimus 2 mg/kg 3 time a week ip, 4 weeks treatment

In the case of `Cc1sc2c(c1C)C(c1ccc(Cl)cc1)=N[C@@H](CC(=O)Nc1ccc(O)cc1)c1nnc(C)n1-2` [Compound (1-1), 2-[(6S)-4-(4-chlorophenyl)-2,3,9-trimethyl-6H-thienol[3,2-f]-[1,2,4]triazolo[4,3-a][1,4]diazepin-6-yl]-N-(4-hydroxyphenyl)acetamide dihydrate], the Cmax [1] is reported as 0.769 ng/mL, the Emax (HCC1937; [9]) is reported as 27% and the GI50 (HCC1937; [9]) is reported as > 6000 nM. The GI50 (HCC1937; HCC1937, 48 h, 48 h exposure, normoxia) was > 6000 nM, the Emax (HCC1937; HCC1937, 48 h, 48 h exposure, normoxia, percent with respect to control untreated cells) was 31% and the Emax (HCC1937; [10]) was 54%. It also gave a GI50 (HCC1937; [10]) of 247 nM, an Emax (HCC1937; [11]) of 70% and a GI50 (HCC1937; [11]) of 262 nM. It also gave an Emax (MDA-MB-231 [2]; [12]) of 67%, a GI50 (MDA-MB-231 [2]; [12]) of 144 nM and an Emax (MDA-MB-231 [2]; [13]) of 71%. The GI50 (MDA-MB-231 [2]; [13]) was 92.2 nM, the Emax (MDA-MB-231 [2]; [14]) was 82% and the GI50 (MDA-MB-231 [2]; [14]) was 49.1 nM. It also gave an Emax (MDA-MB-231 [2]; [15]) of 89%, a GI50 (MDA-MB-231 [2]; [15]) of 55.9 nM and an Emax (MDA-MB-468 [3]; [16]) of 50%. The GI50 (MDA-MB-468 [3]; [17]) was 60.6 nM, the Emax (MDA-MB-468 [3]; [18]) was 30% and the GI50 (MDA-MB-468 [3]; [18]) was > 6000 nM. It also gave an Emax (MDA-MB-468 [3]; [19]) of 71%, a GI50 (MDA-MB-468 [3]; [19]) of 251 nM and an Emax (MDA-MB-468 [3]; [20]) of 80%. The GI50 (MDA-MB-468 [3]; [20]) was 304 nM, the “cell cycle pattern after drug washout” value (MDA-MB-468 [4]) was “substantial (p<0.05) accumulation of cells in G2/M phase” and the BRD2 levels (MDA-MB-231 [5]) was “increased”. The body weight ([6]; 50 mg/kg BID po, after 19 days of treatment) was “without body weight loss”, the “best T/C %” value [6, 21] was 40.7% and the “tumor mass with respect to vehicle-treated mice” value [6, 21] was “significant (p<0.05) reduction”. For the same compound, the Emax (MDA-MB-231 [7]; [12]) was 68%, the GI50 (MDA-MB-231 [7]; [12]) was 63.3 nM and the Emax (MDA-MB-231 [7]; [13]) was 71%. For the same compound, the GI50 (MDA-MB-231 [7]; [13]) was 132 nM, the Emax (MDA-MB-231 [7]; [14]) was 83% and the GI50 (MDA-MB-231 [7]; [14]) was 48.2 nM. The Emax (MDA-MB-231 [7]; [15]) was 83%, the GI50 (MDA-MB-231 [7]; [15]) was 81.7 nM and the Emax (MDA-MB-468 [8]; [16]) was 53%. The GI50 (MDA-MB-468 [8]; [17]) was 258 nM, the Emax (MDA-MB-468 [8]; [18]) was < 10% and the GI50 (MDA-MB-468 [8]; [18]) was > 6000 nM. For the same compound, the Emax (MDA-MB-468 [8]; [19]) was 77%, the GI50 (MDA-MB-468 [8]; [19]) was 296 nM and the Emax (MDA-MB-468 [8]; [20]) was 42%. For the same compound, the GI50 (MDA-MB-468 [8]; MDA-MB-468, 72 h, 72 h exposure, normoxia, * = apparent value) was 448 nM and the “effect of hypoxia on antiproliferative activity” value (MDA-MB-468 [8]; hypoxia (0.1% O2) vs normoxia, MTT assay and cell counting) was “significantly (p<0.05) increased”.
